Assay results published in patent US8987304B2, “Antituberculous composition comprising oxazole compounds” (priority 2005, dated 2015).

How the values were obtained:
[1] = test system: clinical isolates of tubercle bacillus, TBT-9 and TBT-14; experiment: In vitro combined effect: MIC on 7H11 agar plates and FIC index; format: cell-based; conditions: 37° C., 2 weeks; for MIC: Bacillus, 336 h, each agent alone
Description: In Vitro Experiment on the Combined Effect of an Oxazole Compound (I) and Another Agent
A suspension of tubercle bacillus was prepared at about 10^6 CFU/ml (for clinical isolates of tubercle bacillus, TBT-9 and TBT-14). About 10 μl aliquots thereof were inoculated on respective plates by using a multipoint inoculator.

[2] = test system: intracellular parasitic tubercle bacillus (M. tuberculosis H37Rv) in THP-1 cells; experiment: Effect on intracellular parasitic tubercle bacillus in THP-1 cells; format: cell-based
[3] = test system: hepatic microsomal enzyme; experiment: In vitro metabolism, human hepatic microsome; format: in vitro ADME; conditions: 100 μM, microsome protein 1 mg/ml, 37° C., 2 hours
Description: (§1) 4-1. In Vitro Metabolism of Oxazole Compound (I)
(§2) Studies on in vitro metabolism of oxazole compound (I) (compound (A-R)) were performed using hepatic microsomal enzyme of human and various animals (mouse, rat, dog, rabbit and monkey). Human microsome was obtained from Attached Primate Research Institute, HAB Discussion Group (Chiba, Japan). […] The reaction was terminated by adding organic solvent (acetonitrile or ethyl acetate) and generated metabolites were extracted. The extracted metabolites were detected by using high performance liquid chromatography and liquid chromatograph electrospray ionization tandem mass spectrometry to confirm amount of generation.

[4] = test system: hepatic microsomal enzyme; experiment: In vitro metabolism, mouse hepatic microsome; format: in vitro ADME; conditions: 100 μM, microsome protein 1 mg/ml, 37° C., 2 hours
Description: as §1, §2

[5] = test system: hepatic microsomal enzyme; experiment: In vitro metabolism, rat hepatic microsome; format: in vitro ADME; conditions: 100 μM, microsome protein 1 mg/ml, 37° C., 2 hours
Description: as §1, §2

[6] = test system: hepatic microsomal enzyme; experiment: In vitro metabolism, dog hepatic microsome; format: in vitro ADME; conditions: 100 μM, microsome protein 1 mg/ml, 37° C., 2 hours
Description: as §1, §2

[7] = test system: hepatic microsomal enzyme; experiment: In vitro metabolism, rabbit hepatic microsome; format: in vitro ADME; conditions: 100 μM, microsome protein 1 mg/ml, 37° C., 2 hours
Description: as §1, §2

[8] = test system: hepatic microsomal enzyme; experiment: In vitro metabolism, monkey hepatic microsome; format: in vitro ADME; conditions: 100 μM, microsome protein 1 mg/ml, 37° C., 2 hours
Description: as §1, §2

CYP1A1/2 = experiment: ethoxyresorufin deethylation activity in human hepatic microsome
Description: (§3) 4-2. Effect of the Oxazole Compound (I) on the Enzymatic Activity of Each Molecular Species of Cytochrome P450 (CYP)
(§4) Basic reaction composition (0.5 ml) was consisting of microsome protein 0.2-1 mg/ml, 100 mM phosphate buffer (pH 7.4), 0.1 mM EDTA, NADPH generation system (2.5 mM β-NADP, 25 mM glucose-6-phosphate, 2 units glucose-6-phosphate dehydrogenase and 10 mM magnesium chloride), with or without each substrate and inhibitor, and the reaction was performed at 37° C. for 10-60 minutes. Each substrate and its concentration used were 7-ethoxyresorufln (0.5 μM), coumarin (2 μM), 7-benzyloxyresorufin (1.5 μM), tolbutamide (400 μM), S-mephenyloin (100 μM), bufuralol (20 μM), chlorzoxazone (100 μM), testosterone (100 μM) and nifedipine (50 μM).
(§5) Generated products after the metabolic response were measured by using high performance liquid chromatography after extraction.

CYP2A6 = biological target: T1, CYP2A6 (Homo sapiens, UniProt P11509); experiment: coumarin hydroxylation activity in human hepatic microsome
T1 sequence (P11509 1-494): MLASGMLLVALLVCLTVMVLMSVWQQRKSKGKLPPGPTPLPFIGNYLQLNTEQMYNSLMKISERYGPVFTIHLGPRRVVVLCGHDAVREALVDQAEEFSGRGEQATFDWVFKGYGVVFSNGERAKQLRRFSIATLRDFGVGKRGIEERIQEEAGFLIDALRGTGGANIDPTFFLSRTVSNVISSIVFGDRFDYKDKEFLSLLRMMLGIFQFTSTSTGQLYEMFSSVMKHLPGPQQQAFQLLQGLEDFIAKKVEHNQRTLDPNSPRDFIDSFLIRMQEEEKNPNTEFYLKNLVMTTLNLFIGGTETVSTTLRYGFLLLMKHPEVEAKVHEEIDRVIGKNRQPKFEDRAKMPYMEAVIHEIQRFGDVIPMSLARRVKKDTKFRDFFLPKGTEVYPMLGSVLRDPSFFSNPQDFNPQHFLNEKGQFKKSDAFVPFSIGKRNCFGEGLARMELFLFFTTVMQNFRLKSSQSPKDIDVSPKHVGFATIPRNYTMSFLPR
Description: as §3, §4, §5

CYP2B6 = biological target: T2, CYP2B6 (Homo sapiens, UniProt P20813); experiment: 7-benzyloxyresorufin debenzylation activity in human hepatic microsome; conditions: microsomes, pH 7.4
T2 sequence (P20813 1-491): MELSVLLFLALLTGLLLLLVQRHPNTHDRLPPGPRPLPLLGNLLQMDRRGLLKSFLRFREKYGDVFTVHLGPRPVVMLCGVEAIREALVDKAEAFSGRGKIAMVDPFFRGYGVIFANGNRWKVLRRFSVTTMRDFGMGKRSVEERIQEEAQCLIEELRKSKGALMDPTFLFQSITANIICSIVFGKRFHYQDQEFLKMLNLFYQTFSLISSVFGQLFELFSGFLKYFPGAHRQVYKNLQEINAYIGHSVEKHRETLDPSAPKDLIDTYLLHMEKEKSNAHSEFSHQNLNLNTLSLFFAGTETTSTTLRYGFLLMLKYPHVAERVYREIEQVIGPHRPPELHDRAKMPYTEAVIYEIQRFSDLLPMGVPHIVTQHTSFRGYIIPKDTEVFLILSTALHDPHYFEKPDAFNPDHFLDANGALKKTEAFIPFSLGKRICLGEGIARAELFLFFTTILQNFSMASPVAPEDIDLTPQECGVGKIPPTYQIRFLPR
Description: as §3, §4, §5

CYP2C8/9 = experiment: tolbutamide hydroxylation activity in human hepatic microsome
Description: as §3, §4, §5

CYP2C19 = CYP2C19 (Homo sapiens, UniProt P33261); experiment: S-mephenytoin hydroxylation activity in human hepatic microsome; conditions: liver microsomes, pH 7.4, probe S-mephenytoin (100 μM)
Chain of CYP2C19 (P33261 whole entry): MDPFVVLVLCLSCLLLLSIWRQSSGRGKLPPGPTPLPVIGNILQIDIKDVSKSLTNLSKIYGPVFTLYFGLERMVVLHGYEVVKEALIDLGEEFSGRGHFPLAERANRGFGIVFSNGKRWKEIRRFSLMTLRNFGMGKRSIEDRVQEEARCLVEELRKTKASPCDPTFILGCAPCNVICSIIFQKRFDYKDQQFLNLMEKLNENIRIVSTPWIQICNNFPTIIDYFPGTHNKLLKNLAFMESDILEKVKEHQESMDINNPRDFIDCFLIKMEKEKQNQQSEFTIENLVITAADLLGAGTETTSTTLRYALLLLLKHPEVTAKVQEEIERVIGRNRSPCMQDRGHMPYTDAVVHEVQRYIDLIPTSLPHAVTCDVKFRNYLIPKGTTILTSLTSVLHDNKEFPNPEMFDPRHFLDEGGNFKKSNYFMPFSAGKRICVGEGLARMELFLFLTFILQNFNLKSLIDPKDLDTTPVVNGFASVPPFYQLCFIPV
Description: as §3, §4, §5

CYP2D6 = CYP2D6 (Homo sapiens, UniProt P10635); experiment: bufuralol hydroxylation activity in human hepatic microsome; conditions: liver microsomes, pH 7.4, probe bufuralol (20 μM)
Chain of CYP2D6 (P10635 whole entry): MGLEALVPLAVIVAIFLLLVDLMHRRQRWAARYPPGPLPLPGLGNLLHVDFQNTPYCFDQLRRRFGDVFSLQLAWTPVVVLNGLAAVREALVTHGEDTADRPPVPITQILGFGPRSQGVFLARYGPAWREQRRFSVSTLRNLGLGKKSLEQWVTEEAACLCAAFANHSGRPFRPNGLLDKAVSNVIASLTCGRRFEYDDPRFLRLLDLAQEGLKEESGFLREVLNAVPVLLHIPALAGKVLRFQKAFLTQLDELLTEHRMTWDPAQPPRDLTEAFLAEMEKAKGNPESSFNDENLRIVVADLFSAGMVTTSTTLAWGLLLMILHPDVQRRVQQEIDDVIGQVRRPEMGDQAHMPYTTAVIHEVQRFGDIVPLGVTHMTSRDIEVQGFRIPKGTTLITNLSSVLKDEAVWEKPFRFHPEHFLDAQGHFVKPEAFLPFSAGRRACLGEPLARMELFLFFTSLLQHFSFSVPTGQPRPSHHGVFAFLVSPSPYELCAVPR
Description: as §3, §4, §5

[9] = test system: each CYP enzyme (CYP1A/2, CYP2A6, CYP2B6, CYP2C8/9, CYP2C19, CYP2D6, CYP2E1 and CYP3A4); experiment: Summary: effect on each CYP enzyme activity in human hepatic microsome; conditions: up to 100 μM
Description: as §3, §4, §5

[10] = test system: Experimental mouse tuberculosis model; experiment: In vivo experiments for intermittent administration, experimental mouse tuberculosis model; conditions: three times a week, twice a week or once a week; alone or in combination with conventional antituberculous drugs
Text: In Vivo Experiments for Intermittent Administration

CYP2E1 = CYP2E1 (Homo sapiens, UniProt P05181); experiment: chlorozoxazone hydroxylation activity in human hepatic microsome; conditions: 100 μM; CYP2E1, chlorozoxazone (100 μM)
Chain of CYP2E1 (P05181 whole entry): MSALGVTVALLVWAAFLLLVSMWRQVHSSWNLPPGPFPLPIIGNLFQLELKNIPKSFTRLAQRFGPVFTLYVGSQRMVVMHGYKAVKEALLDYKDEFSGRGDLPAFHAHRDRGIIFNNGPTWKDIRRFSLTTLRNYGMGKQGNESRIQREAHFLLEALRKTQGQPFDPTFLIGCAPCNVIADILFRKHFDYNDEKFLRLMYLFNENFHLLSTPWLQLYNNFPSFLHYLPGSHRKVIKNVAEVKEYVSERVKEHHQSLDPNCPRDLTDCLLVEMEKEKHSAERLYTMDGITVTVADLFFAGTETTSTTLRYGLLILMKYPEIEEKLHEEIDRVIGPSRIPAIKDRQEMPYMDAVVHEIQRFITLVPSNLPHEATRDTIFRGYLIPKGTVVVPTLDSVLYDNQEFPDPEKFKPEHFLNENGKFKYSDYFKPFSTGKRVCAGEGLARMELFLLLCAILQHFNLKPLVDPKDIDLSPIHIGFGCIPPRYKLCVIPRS
Description: as §3, §4, §5

[11] = combination Compound (A-R) & EB
[12] = combination Compound (A-R) & RFP
[13] = human, liver microsomes, pH 7.4, probe coumarin (2 μM), coumarin hydroxylation
[14] = liver microsomes, pH 7.4, probe tolbutamide (400 μM), hydroxylation

Compound C[C@]1(COc2ccc(N3CCC(Oc4ccc(OC(F)(F)F)cc4)CC3)cc2)Cn2cc([N+](=O)[O-])nc2O1 [Compound (A-R), (R)-2-methyl-6-nitro-2-{4-[4-(4-trifluoromethoxyphenoxy)piperidin-1-yl]phenoxymethyl}-2,3-dihydroimidazo[2,1-b]oxazole] has an MIC ([1]; line Compound (A-R) & EB) of 0.012 µg/mL, an MIC ([1]; line Compound (A-R) & RFP) of 0.024 µg/mL and an MIC in combination [1, 11] of 0.003 µg/mL. For the same compound, the MIC in combination [1, 12] was 0.006 µg/mL, the “effect in short term action” value ([2]; action for 2 hours) was “strong effect” and the “effect against intracellular parasitic tubercle bacillus at the lowest test dose” value ([2]; compound (A-R) 0.1 μg/ml compared with RFP 3 μg/ml) was “equivalent effect of the maximum concentration 3 μg/ml of RFP”. The “Log reduction of bacterial counts compared with time 0 hour (FIG. 2), comparison among antituberculous drugs” value ([2]; test substance for 2 or 4 hours, bacteria collected at 72 hours) was “stronger effect”, the generated metabolites [3] was “almost no generated metabolites” and the generated metabolites [4] was “almost no generated metabolites”. For the same compound, the generated metabolites [5] was “almost no generated metabolites”, the generated metabolites [6] was “almost no generated metabolites” and the generated metabolites [7] was “almost no generated metabolites”. The generated metabolites [8] was “almost no generated metabolites”, the activity at 1 μM (CYP1A1/2; human, microsomes, pH 7.4) was 99.8% and the activity at 10 μM (CYP1A1/2; human, microsomes, pH 7.4) was 98.4%. For the same compound, the activity at 30 μM (CYP1A1/2; human, microsomes, pH 7.4) was 102%, the activity at 100 μM (CYP1A1/2; human, microsomes, pH 7.4) was 98.6% and the activity at 1 μM (CYP2A6; [13]) was 103%. For the same compound, the activity at 3 μM (CYP2A6; [13]) was 102%, the activity at 10 μM (CYP2A6; [13]) was 103% and the activity at 1 μM (CYP2B6) was 111%. For the same compound, the activity at 3 μM (CYP2B6) was 109%, the activity at 10 μM (CYP2B6) was 118% and the activity at 30 μM (CYP2B6) was 113%. It also gave an activity at 100 μM (CYP2B6) of 122%, an activity at 1 μM (CYP2C8/9; microsomes, pH 7.4) of 107% and an activity at 3 μM (CYP2C8/9; microsomes, pH 7.4) of 111%. It also gave an activity at 10 μM (CYP2C8/9; microsomes, pH 7.4) of 107%, an activity at 30 μM (CYP2C8/9; microsomes, pH 7.4) of 108% and an activity at 100 μM (CYP2C8/9; microsomes, pH 7.4) of 108%. It also gave an activity at 3 μM (CYP2C19) of 109%, an activity at 10 μM (CYP2C19) of 113% and an activity at 1 μM (CYP2D6) of 102%. For the same compound, the activity at 3 μM (CYP2D6) was 102%, the activity at 30 μM (CYP2D6) was 103% and the “inhibitory action and stimulation action against each CYP enzyme activity” value [9] was “did not exhibit inhibitory action and stimulation action”. For the same compound, the “therapeutic effect of intermittent administration compared with once a day administration” value [10] was “equivalent effect”.

CC[C@@H](CO)NCCN[C@@H](CC)CO [EB, ethambutol, reference compound] gave an MIC ([1]; line Compound (A-R) & EB) of 1.56 µg/mL and an MIC in combination [1, 11] of 0.2 µg/mL.

In the case of CCN(CC)C(=S)S [diethyldithiocarbamine, reference compound], the “Relative activity (%) for control activity” value (“Relative activity (%)” for short) (CYP2A6; 100 μM, CYP2A6, coumarin (2 μM)) is reported as 38.2% and the “Relative activity (%)” value (CYP2E1) is reported as 55.0%.

For O=c1cc(-c2ccccc2)oc2c1ccc1ccccc12 [7,8-benzoflavone, reference compound], the “Relative activity (%)” value (CYP1A1/2; 100 μM, CYP1A1/2, 7-ethoxyresorufin (0.5 μM)) was 3.8%.

Compound Cc1nc2c([nH]1)c(=O)n(C)c(=O)n2Cc1ccco1 [furafylline, reference compound] has an activity at 100 μM (CYP1A1/2; human, microsomes, pH 7.4) of 32.3%.

With Nc1ccc(S(=O)(=O)Nc2ccnn2-c2ccccc2)cc1 [sulfaphenazole, reference compound] the activity at 100 μM (CYP2C8/9; [14]) was 25.5%.

With CO[C@H]1/C=C/O[C@@]2(C)Oc3c(C)c(O)c4c(O)c(c(/C=N/N5CCN(C)CC5)c(O)c4c3C2=O)NC(=O)/C(C)=C\C=C\[C@H](C)[C@H](O)[C@@H](C)[C@@H](O)[C@@H](C)[C@H](OC(C)=O)[C@@H]1C [RFP, rifampicin, reference compound] the MIC in combination [1, 12] was 0.05 µg/mL.

In the case of O=c1c(O)c(-c2ccc(O)c(O)c2)oc2cc(O)cc(O)c12 [quercetin, reference compound], the activity at 100 μM (CYP2C8/9; [14]) is reported as 30.6%.
